Values quoted from earlier work, collected in patent publication US20110052686A1, “MODIFIED RELEASE LAMOTRIGINE TABLETS” (RANBAXY LABORATORIES LIMITED, priority 2009, published 2011).

Conditions: oral administration

SMILES: Nc1nnc(-c2cccc(Cl)c2Cl)c(N)n1 [Lamotrigine, 3,5-diamino-6-(2,3-dichlorophenyl)-1,2,4-triazine]
- effect of food on bioavailability: not affected by food
- first-pass metabolism: negligible first-pass metabolism
- time of peak plasma concentrations following drug administration: 1.4 to 4.8 h
